In patent US7094869B2, “Low molecular weight peptidomimetic growth hormone secretagogues” (Genentech, Inc., priority 1994, dated 2006):
Where two headings read alike, the source gives them in different places. Starred links: 1 amine or outer side, 2 acyl side, 3 side chain; linkers in the order of their positions; H or OH if unused. Non-standard residues stand in square brackets, D forms with d. Residues, ends and D or L forms follow the SMILES beside them. ξ: configuration not given here. dNMe2Nal = CN[C@H](Cc1ccc2ccccc2c1)C(=O)O; dPhe(4-Cl) = N[C@H](Cc1ccc(Cl)cc1)C(=O)O; 2Nal = N[C@@H](Cc1ccc2ccccc2c1)C(=O)O; d2Nal = N[C@H](Cc1ccc2ccccc2c1)C(=O)O; ξNMe2Nal = CNC(Cc1ccc2ccccc2c1)C(=O)O; ξ2Nal = NC(Cc1ccc2ccccc2c1)C(=O)O; NMeF = CN[C@@H](Cc1ccccc1)C(=O)O; NMeGABA = CN(CCCC(=O)[*:2])[*:1]; Phe(ol) = N[C@H](CO)Cc1ccccc1; Ac6c = NC1(C(=O)O)CCCCC1; Orn = NCCC[C@H](N)C(=O)O; Inp = O=C(O)C1CCNCC1; ξK = NCCCCC(N)C(=O)O; Ava = NCCCCC(=O)O; GABA = NCCCC(=O)O; βAla = NCCC(=O)O

How the values were obtained:
rat pituitary cells = rat pituitary cells (Rattus norvegicus, UniProt O08725); conditions: GH release, 15 min incubation
Procedure, shortened: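 Primary rat anterior pituitary cells, cultured three days in DME low glucose/10% FBS, were washed, pre-incubated twice for 15 min, then challenged 15 min with test compounds (DMSO ≤0.1%) at 37 °C. Released GH was measured by two-site ELISA; EC50 came from 4-parameter fits, mean of three to four independent determinations.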

growth hormone secretion = test: GHRP induced growth hormone secretion, intravenous administration (Rat IV); assay type: in vivo; conditions: serum GH 10 min after injection; for RAT IV ED50: iv injection
Procedure, shortened: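 Female Sprague Dawley rats (24-30 days, 50-90 g) under intraperitoneal pentobarbitone received graded intravenous tail-vein peptide doses in pH 5.0 sodium acetate/mannitol buffer 20 min post-anaesthesia. Blood by cardiac puncture 10 min after dosing; serum GH measured by rat GH ELISA in duplicate.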

[1] = read-out: PIT Cell EC50, Table III, formula IV compounds
[2] = read-out: PIT Cell EC50, Table IV, formula III compounds

Chain of rat pituitary cells (O08725 whole entry): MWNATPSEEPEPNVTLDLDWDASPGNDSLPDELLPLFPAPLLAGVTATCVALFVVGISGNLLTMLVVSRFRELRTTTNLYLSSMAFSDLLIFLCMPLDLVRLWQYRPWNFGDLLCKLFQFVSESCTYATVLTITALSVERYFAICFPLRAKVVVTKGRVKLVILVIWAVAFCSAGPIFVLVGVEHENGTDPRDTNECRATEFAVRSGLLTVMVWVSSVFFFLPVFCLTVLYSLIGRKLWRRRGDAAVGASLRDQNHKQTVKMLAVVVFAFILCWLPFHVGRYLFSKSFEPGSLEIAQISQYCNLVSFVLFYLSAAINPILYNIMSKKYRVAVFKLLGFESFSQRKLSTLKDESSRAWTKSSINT

| Structure (SMILES) | EC50 (rat pituitary cells; [1]) [nM] | RAT IV ED50 (growth hormone secretion; Table III) [µg] | EC50 (rat pituitary cells; [2]) [nM] | RAT IV ED50 (growth hormone secretion; Table IV) [µg] | other results |
| --- | --- | --- | --- | --- | --- |
| C[C@H](NC(=O)[C@@H](Cc1ccc2ccccc2c1)NC(=O)[C@@H](C)N)C(=O)N[C@@H](Cc1c[nH]c2ccccc12)C(=O)N[C@H](Cc1ccccc1)C(=O)N[C@@H](CCCCN)C(N)=O [GHRP 2, D Ala-D βNal-Ala-Trp-D Phe-Lys-NH2, reference compound] (H-[dA][d2Nal]AW[dF]K-NH2) |  |  |  |  | EC50 (rat pituitary cells; read-out: “Pit” Cell EC50, Table II, prior art compounds): 1 nM; Rat IV ED50 (growth hormone secretion; Table II, iv tail vein injection, anesthetized weanling female rats): 0.35 µg |
| CN(C(=O)C(Cc1ccc2ccccc2c1)NC(=O)C1CCNCC1)[C@H](Cc1ccc2ccccc2c1)C(=O)N[C@@H](Cc1ccccc1)C(=O)NC(CCCCN)C(N)=O (stereo partly drawn) [(inip) b nmb F K amide, (inip)-DβNal-(N-Me-DβNal)-Phe-Lys-amide] (H-[Inp][ξ2Nal][dNMe2Nal]F[ξK]-NH2) | 0.2 | 1 |  |  |  |
| N[C@H]1CC[C@H](NC(=O)[C@@H](Cc2ccc3ccccc3c2)NC(=O)[C@@H](Cc2ccc3ccccc3c2)NC(=O)C2CCNCC2)CC1 [(inip) b b cxa] |  |  | 14 | 10 |  |
| O=C(N[C@H](Cc1ccc2ccccc2c1)C(=O)N[C@H](Cc1ccc2ccccc2c1)C(=O)N[C@H](CO)Cc1ccccc1)C1CCNCC1 [(inip) b b Pol, (inip)-DβNal-DβNal-(L-Phenylalanol)] (H-[Inp][d2Nal][d2Nal][Phe(ol)]) |  |  | 0.2 | 5 |  |
| CN(C(=O)CCCN)[C@H](Cc1ccc2ccccc2c1)C(=O)N[C@H](Cc1ccc2ccccc2c1)C(=O)N[C@@H](Cc1ccccc1)C(=O)N[C@@H](CCCCN)C(N)=O [(Ab) nmb b F K amide] (H-[GABA][dNMe2Nal][d2Nal]FK-NH2) | 0.5 | 1 |  |  |  |
| CN(C(=O)C1CCNCC1)C(Cc1ccc2ccccc2c1)C(=O)N[C@H](Cc1ccc2ccccc2c1)C(=O)N[C@@H](Cc1ccccc1)C(=O)NC(CCCCN)C(N)=O (stereo partly drawn) [(inip) nmb b F K amide, (inip)-(N-Me-DβNal)-DβNal-Phe-Lys-amide] (H-[Inp][ξNMe2Nal][d2Nal]F[ξK]-NH2) | 0.27 | 0.4 |  |  |  |
| O=C(N[C@H](Cc1ccc2ccccc2c1)C(=O)N[C@H](Cc1ccc2ccccc2c1)C(=O)N1CCNCC1)C1CCNCC1 [(inip) b b ppz] |  |  | 10 | 10 |  |
| NCCCC[C@H](NC(=O)[C@H](Cc1ccccc1)NC(=O)[C@@H](Cc1ccc2ccccc2c1)NC(=O)[C@@H](Cc1c[nH]c2ccccc12)NC(=O)[C@@H](N)Cc1c[nH]cn1)C(N)=O [H w b F K amide] (H-H[dW][d2Nal]FK-NH2) | 15 | 50 |  |  |  |
| NC(=O)[C@@H](Cc1ccccc1)NC(=O)[C@@H](Cc1ccc2ccccc2c1)NC(=O)[C@@H](Cc1ccc2ccccc2c1)NC(=O)C1CCNCC1 [(inip) b b f amide] (H-[Inp][d2Nal][d2Nal][dF]-NH2) |  |  | 0.6 | 20 |  |
| CN[C@H](Cc1ccc2ccccc2c1)C(=O)N[C@H](Cc1ccc2ccccc2c1)C(=O)N[C@@H](Cc1ccccc1)C(=O)N[C@@H](CCCCN)C(N)=O [nmb b F K amide] (H-[dNMe2Nal][d2Nal]FK-NH2) | > 100 | 1000 |  |  |  |
| CN(C(=O)C1CCNCC1)[C@H](Cc1ccc2ccccc2c1)C(=O)N[C@@H](Cc1ccc2ccccc2c1)C(=O)N[C@@H](Cc1ccccc1)C(=O)O [(inip) nmb B F acid] (H-[Inp][dNMe2Nal][2Nal]F-OH) |  |  | 7 | 100 |  |
| NC(=O)CCNC(=O)[C@@H](Cc1ccc2ccccc2c1)NC(=O)[C@@H](Cc1ccc2ccccc2c1)NC(=O)C1CCNCC1 [(inip) b b bA amide] (H-[Inp][d2Nal][d2Nal][βAla]-NH2) |  |  | 10 | 10 |  |
| NCCCCNC(=O)[C@@H](Cc1ccc2ccccc2c1)NC(=O)[C@@H](Cc1ccc2ccccc2c1)NC(=O)C1CCNCC1 [(inip) b b bam, (inip)-DβNal-DβNal-[N-(4-aminobutyl)] amide] |  |  | 18.5 | 3.3 |  |
| NC(=O)[C@H](Cc1ccccc1)NC(=O)[C@@H](Cc1ccc2ccccc2c1)NC(=O)[C@@H](Cc1ccc(Cl)cc1)NC(=O)C1CCNCC1 [(inip) chf b F amide] (H-[Inp][dPhe(4-Cl)][d2Nal]F-NH2) |  |  | 2.2 | 10 |  |
| NCCCCC(=O)N[C@H](Cc1ccc2ccccc2c1)C(=O)N[C@H](Cc1ccc2ccccc2c1)C(=O)N[C@@H](Cc1ccccc1)C(=O)N[C@@H](CC(N)=O)C(N)=O [(Ava) b b F N amide] (H-[Ava][d2Nal][d2Nal]FN-NH2) | 7.7 | 200 |  |  |  |
| NCCCNC(=O)[C@@H](Cc1ccc2ccccc2c1)NC(=O)[C@@H](Cc1ccc2ccccc2c1)NC(=O)C1CCNCC1 [(inip) b b ram] |  |  | 16 | 5 |  |
| O=C(N[C@H](Cc1ccc2ccccc2c1)C(=O)NCc1ccc2ccccc2c1)C1CCNCC1 [(inip) b man, (inip)-DβNal-(2-aminomethylnaphthyl) amide] |  |  |  |  | EC50 (rat pituitary cells; read-out: PIT Cell EC50, Table V, formula II compounds): 9 nM; RAT IV ED50 (growth hormone secretion; Table V): 500 µg |
| NC(=O)C1(NC(=O)[C@@H](Cc2ccc3ccccc3c2)NC(=O)[C@@H](Cc2ccc3ccccc3c2)NC(=O)C2CCNCC2)CCCCC1 [(inip) b b Abx amide] (H-[Inp][d2Nal][d2Nal][Ac6c]-NH2) |  |  | 13 | 100 |  |
| NCCCCC(=O)N[C@H](Cc1ccc2ccccc2c1)C(=O)N[C@H](Cc1ccc2ccccc2c1)C(=O)N[C@@H](Cc1ccccc1)C(=O)N[C@H](CC(N)=O)C(N)=O [(Ava) b b F n amide] (H-[Ava][d2Nal][d2Nal]F[dN]-NH2) | 10 | 12.5 |  |  |  |
| CNCCCC(=O)NC(Cc1ccc2ccccc2c1)C(=O)N[C@H](Cc1ccc2ccccc2c1)C(=O)N[C@@H](Cc1ccccc1)C(=O)NC(CCCCN)C(N)=O (stereo partly drawn) [(mab) b b F K amide, [4-(N-methylamino)butanoyl]-DβNal-DβNal-Phe-Lys-amide] (NMeGABA-[ξ2Nal][d2Nal]F[ξK]-NH2) | 1.4 | 0.7 |  |  |  |
| NCCCC(=O)N[C@H](Cc1ccc2ccccc2c1)C(=O)N[C@H](Cc1ccc2ccccc2c1)C(=O)N[C@@H](Cc1ccccc1)C(N)=O [(Ab) b b F amide] (H-[GABA][d2Nal][d2Nal]F-NH2) |  |  | 3.1 | 10 |  |
| CN(C(=O)[C@@H](Cc1ccc2ccccc2c1)NC(=O)C1CCNCC1)[C@H](Cc1ccc2ccccc2c1)C(=O)N[C@@H](Cc1ccccc1)C(N)=O [(inip) b nmb F amide] (H-[Inp][d2Nal][dNMe2Nal]F-NH2) |  |  | 1 | 5 |  |
| NCCCCC(=O)N[C@H](Cc1ccccc1)C(=O)N[C@H](Cc1c[nH]c2ccccc12)C(=O)N[C@@H](Cc1ccccc1)C(N)=O [(Ava) f w F amide] (H-[Ava][dF][dW]F-NH2) |  |  | > 300 | 1000 |  |
| NCCCC[C@H](NC(=O)[C@H](Cc1ccccc1)NC(=O)[C@@H](Cc1c[nH]c2ccccc12)NC(=O)[C@@H](Cc1ccc2ccccc2c1)NC(=O)CN)C(N)=O [G b w F K amide] (H-G[d2Nal][dW]FK-NH2) | 0.8 | 4.8 |  |  |  |
| C[C@H](N)C(=O)N[C@H](Cc1ccc2ccccc2c1)C(=O)N[C@H](Cc1ccc2ccccc2c1)C(=O)N[C@@H](Cc1ccccc1)C(=O)N[C@@H](CCCCN)C(N)=O [A b b F K amide] (H-A[d2Nal][d2Nal]FK-NH2) | 2.1 | 10 |  |  |  |
| CN(C(=O)[C@@H](Cc1ccc2ccccc2c1)NC(=O)[C@@H](Cc1ccc2ccccc2c1)NC(=O)C1CCNCC1)[C@@H](Cc1ccccc1)C(N)=O [(inip) bb nmF amide] (H-[Inp][d2Nal][d2Nal][NMeF]-NH2) |  |  | 0.6 | 5 |  |
| COC(=O)[C@H](Cc1ccccc1)NC(=O)[C@@H](Cc1ccc2ccccc2c1)NC(=O)[C@@H](Cc1ccc2ccccc2c1)N(C)C(=O)C1CCNCC1 [(inip) nmb b F Me ester] (H-[Inp][dNMe2Nal][d2Nal]F-OMe) |  |  | 1.4 | 10 |  |
| NCCC[C@H](NC(=O)[C@@H](Cc1ccc2ccccc2c1)NC(=O)[C@@H](Cc1ccc2ccccc2c1)NC(=O)C1CCNCC1)C(N)=O [(inip) b b O amide] (H-[Inp][d2Nal][d2Nal][Orn]-NH2) |  |  | 5.9 | 1 |  |
| NCCCCN(CCc1ccccc1)C(=O)[C@@H](Cc1ccc2ccccc2c1)NC(=O)[C@@H](Cc1ccc2ccccc2c1)NC(=O)C1CCNCC1 [(inip) b b fbd, (inip)-DβNal-DβNal-[N-(2-phenylethyl), N-(4-aminobutyl)] amide] |  |  | 0.9 | 0.67 |  |
